Values quoted from earlier work in US11375717B2, “Combinations of acaricides and insect growth regulators for control of fleas without emesis in animals” (Piedmont Animal Health Inc., priority 2017, dated 2022).

Conditions: 30 mg/kg in cats and 10 mg/kg in dogs

## O=C(NC(=O)c1c(F)cccc1F)Nc1cc(Cl)c(OC(F)(F)C(F)C(F)(F)F)cc1Cl (stereo not shown) [Lufenuron]
  Emesis: common side effect
